Five compounds from paper PMC9739537, “Bioassay-Guided Fractionation with Antimalarial and Antimicrobial Activities of Paeonia officinalis” (Molecules, 2022) can be followed below.

≈ marks a conversion by molar mass, not a printed value. Read-outs that look alike come from different tables or passages of the source.

One assay relates to VERO. Description: Cytotoxicity toward mammalian kidney fibroblasts (Vero). The class given is cell-based. Conditions: Chlorocebus sabaeus, VERO cells.
For another assay, the system named is P. falciparum D6. Description: Antimalarial assay (plasmodial LDH activity), D6 strain. Type of assay: cell-based, Plasmodium falciparum. Conditions: for IC50: Plasmodium falciparum, read-out: IC50 antiplasmodial activity, P. falciparum D6; for SI (Selectivity index), P. falciparum D6: VERO vs P. falciparum D6. The procedure:
(§1) The assay is based on the measurement of plasmodial LDH activity. The test was conducted using a suspension of red blood cells infected with D6 or W2 strains of P. falciparum (200 µL, with 2% parasitemia, and 2% hematocrit in RPMI 1640 medium supplemented with 10% human serum and 60 µg/mL Amikacin) into the wells of a 96-well plate containing 10 µL of test samples diluted in medium at various concentrations. The plate was put in a modular incubation chamber (Billups-Rothenberg, San Diego, CA, USA); flushed with a gas mixture consisting of 90% N2, 5% O2, and 5% CO2; and incubated for 72 h at 37 °C. Parasitic LDH activity was measured by utilizing Malstat reagent (Flow Inc., Portland, OR, USA). Briefly, 20 µL of the incubation mixture was combined with 100 µL of the Malstat reagent and incubated at room temperature for 30 min. Then, twenty microliters of a 1:1 mixture of NBT/PES (Sigma, St. Louis, MO, USA) was added and the plate was further incubated in the dark for 1 h. The reaction was then stopped by the addition of 100 µL of a 5% acetic acid solution. The plate was read at 650 nm using the EL-340 Biokinetics Reader (Bio-Tek Instruments, Winooski, VT, USA). The dose–response curves were used to calculate IC50 values. […] Dimethyl sulfoxide (0.25%) was used as vehicle control.

The test system of the next assay is P. falciparum W2. Description: Antimalarial assay (plasmodial LDH activity), W2 strain. The class given is cell-based, Plasmodium falciparum. Conditions: for IC50: Plasmodium falciparum, read-out: IC50 antiplasmodial activity, P. falciparum W2; for SI (Selectivity index), P. falciparum W2: VERO vs P. falciparum W2. Here is the method: as §1
The next assay relates to C. neoformans. Briefly: Antimicrobial susceptibility testing (modified CLSI), C. neoformans. Type of assay: cell-based, Cryptococcus neoformans. From the text:
(§2) The microorganism strains that were employed to test the antimicrobial activity were Candida albicans Pinh, C. neoformans Pinh, Aspergillus fumigatus Pinh, methicillin-resistant Staphylococcus aureus Pinh (MRS), E. coli Pinh, Pseudomonas aeruginosa Pinh, Klebsiella pneumoniae Pinh, and Vancomycin-resistant Enterococci (VRE) Pinh. The strains were bought from the American Type Culture Collection. A modified version of the CLSI methodology was used for the susceptibility testing. A final DMSO concentration of 1% was maintained in the assay by serially diluting all samples in 20% DMSO/saline and transferring them in duplicate to 384 well flat-bottom microplates. Following the McFarland standard, inocula were created by adjusting the OD630 of microbe suspensions in incubation broth. C. albicans was cultured in RPMI 1640 broth (2% dextrose, 0.03% glutamine, and MOPS at pH 6); C. neoformans in Sabouraud Dextrose; MRS, VRE, E. coli, K. pneumoniae, and P. aeruginosa in cation-adjusted Mueller–Hinton at pH 7.3, and A. fumigatus in RPMI 1640 broth (2% dextrose, 0.03% glutamine, buffered with 0.165 M MOPS at pH 7). Five percent Alamar Blue was added in A. fumigatus, VRE, and MRS. In every assay, there were drug controls for bacteria and fungi. […] A Bio-Tek plate reader was used to measure the optical density (530 nm) or fluorescence (544ex/590em) before and after incubation.

The test system of another assay is Pseudomonas aeruginosa. Description: Antimicrobial susceptibility testing (modified CLSI), P. aeruginosa. Type of assay: cell-based.
Description: as §2

The next assay has as its system Klebsiella pneumoniae. Description: Antimicrobial susceptibility testing (modified CLSI), K. pneumoniae. Type of assay: cell-based.
Description: as §2

In assay [1] the test system is methicillin-resistant Staphylococcus aureus (MRS). Description: Antimicrobial susceptibility testing (modified CLSI), MRS. The class given is cell-based.
Description: as §2

In assay [2] the test system is Candida albicans, C. neoformans, Aspergillus fumigatus, MRS, E. coli, Pseudomonas aeruginosa, Klebsiella pneumoniae, VRE. Briefly: Antimicrobial panel (all assayed microorganisms). Conditions: at the tested concentration. Type of assay: cell-based.
Description: as §2

By IC50 is commonly meant the point on the concentration scale where inhibition reaches its midpoint. Regarding `CCN(CC)CCCC(C)Nc1ccnc2cc(Cl)ccc12` (stereo not shown) [Chloroquine, chloroquine, reference compound], the 50% inhibitory concentration (IC50) was over 0.24 µg/mL in the assay on VERO; 0.026 µg/mL (≈ 0.0813 µM) with P. falciparum D6 (D6, 72 h); 0.14 µg/mL (≈ 0.438 µM) in the assay on P. falciparum W2 (W2, 72 h).
As for `OC(Cn1cncn1)(Cn1cncn1)c1ccc(F)cc1F` [Fluconazole, fluconazole], the “IC50 antimicrobial activity, C. neoformans” value in the assay with C. neoformans was found to be 4.684 µg/mL (≈ 15.3 µM). This compound showed an IC50 in the assay with C. neoformans (Cryptococcus neoformans) of 4.68 µg/mL (≈ 15.3 µM).
As to `C[C@@H](O)[C@H]1C(=O)N2C(C(=O)O)=C(S[C@@H]3CN[C@H](C(=O)N(C)C)C3)[C@H](C)[C@H]12` [Meropenem, meropenem], the IC50 came to 28.7 µg/mL (≈ 74.8 µM) in the assay with Pseudomonas aeruginosa and 46.9 µg/mL (≈ 122 µM) in assay [1]. In addition, the “IC50 antimicrobial activity, K. pneumoniae” value amounted to 9.143 µg/mL (≈ 23.8 µM) with Klebsiella pneumoniae and 43.94 µg/mL (≈ 115 µM) with Klebsiella pneumoniae (listed as meropenem).
Take `COC(=O)c1cc(O)c(O)c(O)c1` [compound 3, methyl gallate]: the IC50 in the assay with VERO is over 4.76 µg/mL; with P. falciparum D6 (D6 strain, 72 h), 1.57 µg/mL (≈ 8.53 µM); with P. falciparum W2 (W2 strain, 72 h), 0.61 µg/mL (≈ 3.31 µM). The “antiplasmodial activity against P. falciparum D6 (in words)” value in the assay with P. falciparum D6 (D6 strain) is listed as “remarkable antiplasmodial activity”. In addition, in the assay with P. falciparum D6, the “SI (Selectivity index), P. falciparum D6” value is over 3. The “antimicrobial activity (in words)” value in assay [2] was “no exhibition of antimicrobial activity”. Moreover, the “SI (Selectivity index), P. falciparum W2” value with P. falciparum W2 was over 7.8. Besides, the “antiplasmodial activity against P. falciparum W2 (in words)” value in the assay on P. falciparum W2 (W2 strain) is “remarkable antiplasmodial activity”.
Regarding `C[C@@]12C[C@@]3(O)O[C@@H](O1)[C@]1(COC(=O)c4ccccc4)[C@@H]3C[C@]12O[C@@H]1O[C@H](COC(=O)c2cc(O)c(O)c(O)c2)[C@@H](O)[C@H](O)[C@H]1O` [compound 5, galloyl paeoniflorin], the IC50 in the assay on VERO is over 4.76 µg/mL; in the assay on P. falciparum D6 (D6 strain, 72 h), 4.72 µg/mL (≈ 7.46 µM); with P. falciparum W2 (W2 strain, 72 h), 2.91 µg/mL (≈ 4.6 µM). The “antiplasmodial activity against P. falciparum D6 (in words)” value in the assay with P. falciparum D6 (D6 strain) is on record as “remarkable antiplasmodial activity”. Further, the “SI (Selectivity index), P. falciparum D6” value in the assay with P. falciparum D6 is reported as over 1. For the same compound, the “antimicrobial activity (in words)” value in assay [2] is listed as “no exhibition of antimicrobial activity”. The “SI (Selectivity index), P. falciparum W2” value in the assay with P. falciparum W2 is recorded as over 1.6. Besides, the “antiplasmodial activity against P. falciparum W2 (in words)” value in the assay on P. falciparum W2 (W2 strain) is “remarkable antiplasmodial activity”.
